Source: the supplement of paper PMC10307832

Tests used:
Assay in all cases: relative viability (nuclei count vs DMSO), 5 days (fraction); higher = more cells survive
Vandetanib + Tozasertib = compound: COc1cc2/c(=N/c3ccc(Br)cc3F)nc[nH]c2cc1OCC1CCN(C)CC1 [Vandetanib] + Cc1cc(Nc2cc(N3CCN(C)CC3)nc(Sc3ccc(NC(=O)C4CC4)cc3)n2)n[nH]1 [Tozasertib] (partner 0.1 µM)
How it was run: (§1)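 Lung cancer cell lines in 1536-well plates got either a single drug or a fixed anchor-drug dose together with five library-drug doses (not always all listed) in √10 steps, by pin tool, on the day after seeding. Nuclei were counted after 5 days, and relative viability is the treated-to-vehicle ratio of nuclei counts. Values are medians of duplicate plates.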

[1] = compound: C1=CC=C2C(=C1)N=C(S2)C(C#N)C3=NC(=NC=C3)NCCC4=CN=CC=C4 + C[C@]1(O)C[C@@H](c2nc(-c3ccc4ccc(-c5ccccc5)nc4c3)c3c(N)nccn32)C1 [Linsitinib] (partner 1 µM)
How it was run: as §1

NVP-TAE684 + Crizotinib = compound: COc1cc(N2CCC(N3CCN(C)CC3)CC2)ccc1Nc1ncc(Cl)c(Nc2ccccc2S(=O)(=O)C(C)C)n1 [NVP-TAE684] + C[C@@H](Oc1cc(-c2cnn(C3CCNCC3)c2)cnc1N)c1c(Cl)ccc(F)c1Cl [Crizotinib] (partner 1 µM)
How it was run: as §1

CUDC-101 + Navitoclax = compound: C#Cc1cccc(Nc2ncnc3cc(OC)c(OCCCCCCC(=O)NO)cc23)c1 [CUDC-101] + CC1(C)CCC(c2ccc(Cl)cc2)=C(CN2CCN(c3ccc(C(=O)NS(=O)(=O)c4ccc(N[C@H](CCN5CCOCC5)CSc5ccccc5)c(S(=O)(=O)C(F)(F)F)c4)cc3)CC2)C1 [Navitoclax] (partner 0.5 µM)
How it was run: as §1

Row | Cell Line | relative viability (Vandetanib + Tozasertib; first compound 0.02 µM) | relative viability (Vandetanib + Tozasertib; first compound 0.06325 µM) | relative viability (Vandetanib + Tozasertib; first compound 0.2 µM) | relative viability (Vandetanib + Tozasertib; first compound 0.6325 µM) | relative viability (Vandetanib + Tozasertib; first compound 2 µM) | relative viability ([1]; first compound 0.005 µM) | relative viability ([1]; first compound 0.01581 µM) | relative viability ([1]; first compound 0.05 µM) | relative viability ([1]; first compound 0.1581 µM) | relative viability ([1]; first compound 0.5 µM) | relative viability (NVP-TAE684 + Crizotinib; first compound 0.2 µM) | relative viability (NVP-TAE684 + Crizotinib; first compound 0.6325 µM) | relative viability (NVP-TAE684 + Crizotinib; first compound 2 µM) | relative viability (CUDC-101 + Navitoclax; first compound 0.01 µM) | relative viability (CUDC-101 + Navitoclax; first compound 0.03162 µM) | relative viability (CUDC-101 + Navitoclax; first compound 0.1 µM) | relative viability (CUDC-101 + Navitoclax; first compound 0.3162 µM) | relative viability (CUDC-101 + Navitoclax; first compound 1 µM)
1 | HCC-78 | 0.502 | 0.451 | 0.41 | 0.548 | 0.404 | 0.492 | 0.423 | 0.33 | 0.582 | 0.549 | 0.287 | 0.296 | 0.286 | 0.76 | 0.706 | 0.846 | 0.684 | 0.391
2 | HCC-366 | 0.125 | 0.112 | 0.0453 | 0.174 | 0.0919 | 0.56 | 0.709 | 0.693 | 0.834 | 0.558 | 0.923 | 0.648 | 0.226 | 1.1 | 0.875 | 1.06 | 1.08 | 0.844
3 | HCC-827 | 0.442 | 0.419 | 0.415 | 0.243 | 0.135 | 0.988 | 0.987 | 0.961 | 1.03 | 0.931 | 0.914 | 0.907 | 0.868 | 1.1 | 0.66 | 0.271 | 0.184 | 0.167
4 | HOP-62 | 0.42 | 0.379 | 0.191 | 0.384 | 0.368 | 1.13 | 1.19 | 0.919 | 1.21 | 0.932 | – | 0.997 | 0.823 | 1.17 | 0.954 | 1.02 | 1.02 | 1.01
5 | IA-LM | – | – | – | – | – | – | 0.544 | 0.32 | 0.607 | 0.637 | 0.626 | 0.692 | 0.62 | 0.685 | 0.806 | 0.698 | 0.832 | 0.281
6 | LC-2-ad | 0.471 | 0.462 | 0.467 | 0.45 | 0.357 | 0.886 | 0.85 | 0.844 | 0.878 | 0.82 | 0.419 | 0.433 | 0.315 | 0.462 | 0.475 | 0.49 | 0.517 | 0.196
7 | LCLC-97TM1 | 0.219 | 0.225 | 0.346 | 0.24 | 0.251 | 0.218 | 0.186 | 0.175 | 0.191 | 0.225 | 0.216 | 0.336 | 0.0982 | 0.416 | 0.304 | 0.593 | 0.377 | 0.306
8 | LCLC-103H | 0.613 | 0.443 | 0.548 | 0.481 | 0.555 | 1.03 | 1.08 | 1.14 | 1.09 | 1.06 | 1.16 | 1.08 | 1 | – | – | – | – | –
9 | LK-2 | 0.18 | 0.165 | 0.195 | 0.182 | 0.172 | 0.409 | 0.736 | 0.621 | 0.689 | 0.555 | 0.228 | 0.223 | 0.203 | 0.927 | 0.826 | 0.819 | 0.741 | 0.415
